Measurements reported in US20040235922A1, “Compositions and methods for inducing adipose tissue cell death” (priority 2003, published 2004).
Entries after “also recorded” stand apart in the source; their conditions may differ. Where a name gives a salt, the structure may show the parent alone. Marks after values point to notes of the source that are not given here.

Tests used:
[1] = 21 day oral (diet) treatment of mice: body weight, food intake, feed efficiency, body temperature, body composition by PIXImus densitometry (Example 1); type: in vivo; conditions: 21 days, ICR mice
Procedure: (§1) The effects of clenbuterol, a β2-AR agonist, and ractopamine, a β1/β2-AR agonist, on growth, adiposity and adipose tissue apoptosis in male and female mice have been tested by feeding diets containing control, 200 ppm clenbuterol, or 200 or 800 ppm ractopamine. Food intake (FI) was measured daily; body weight (BW) and temperatures (BT) were measured on days 0, 3, 7, 10, 14, 17, and 20. On day 21 mice were sacrificed, body composition was determined using PIXImus densitometry, and muscle and adipose tissues were collected. There were no treatment effects on BT, FI, BW, feed efficiency or body composition. Retroperitoneal (Rp) and epididymal/parametrial (Epi/Par) fat pad masses were reduced in both 800 ppm ractopamine (40±3 and 207±20 mg, respectively) and clenbuterol (35±7 and 211±22 mg) treated mice compared to control (66±8 and 319±30 mg, p<0.05). Brown adipose tissue (BAT) mass was greater (p<0.05) in clenbuterol treated mice compared to other treatments. Adipose tissue apoptosis (% DNA fragmentation) was increased in Epi/Par fat pads in clenbuterol (5.2+1.1%) and 800 ppm ractopamine (4.1±0.8%) treated mice compared to control (1.7+0.4%, p<0.05).
(§2) Animals: Five week old male (n=20) and female (n=20) ICR mice (Harlan Research Laboratories, Indianapolis, Ind.) were allowed to acclimate for one week prior to the experiment start date. Animals were housed singly in suspended wire cages and were provided ground rodent chow (ProLab® RMH 2500; Purina Mills, St. Louis, Mo.) and water ad libitum. Ambient room temperature was maintained and the light/dark cycle was 0600/1800 hours, respectively. Animals were cared for in accordance with the Guide for the Care and Use of Laboratory Animals (Institute of Laboratory Animal Resources Commission on Life Sciences National Research Council. Guide for the Care and Use of Laboratory Animals. National Academy of Sciences, 1996). Prior to the start of the study, animals were briefly anesthetized with isofluorane and an IPPT-200 transponder (programmable ID and temperature, BMDS, Seaford, Del.) was implanted subcutaneously between the scapulae.
(§3) Materials: Test articles included clenbuterol (Sigma Chemical Company, St. Louis, Mo., item # C5423) and ractopamine hydrochloride—Paylean® 9 (Elanco Animal Health, Indianapolis, Ind.). Clenbuterol is available as a pure product, and ractopamine is readily available as a type A medicated article. Paylean® 9 contains about 20 g ractopamine hydrochloride per kilogram in a ground corncob base. In order to achieve doses of 200 and 800 ppm it was necessary to add about […] of product per kilogram of diet. Control and clenbuterol diets were prepared with about 80 g of alphacel, which is a diluent used to mimic the effect of the corncob in the ractopamine product. The dose of clenbuterol used in this experiment was similar to those used in previous experiments with mice (Agbenyega E T, and Wareham A C. Effect of clenbuterol on skeletal muscle atrophy in mice induced by the glucocorticoid dexamethasone. Comp Biochem Physiol Comp Physiol 1992;102:141-145, Rothwell N. J., and Stock M J. Modification of body composition by clenbuterol in normal and dystrophic (mdx) mice. Biosci Rep 1985;5:755-760, Hyltander A, Svaninger G, and Lundholm K. The effect of clenbuterol on body composition in spontaneously eating tumour-bearing mice. Biosci Rep 1993;13:325-331, Hayes A, and Williams DA. Long-term clenbuterol administration alters the isometric contractile properties of skeletal muscle from normal and dystrophin-deficient mdx mice. Clin Exp Pharmacol Physiol 1994;21:757-765, Dupont-Versteegden EE. Exercise and clenbuterol as strategies to decrease the progression of muscular dystrophy in mdx mice. J Appl Physiol 1996;80:734-741).
Daily Observations: Food intake was measured daily, while body weight and body temperatures were measured on days 0, 3, 7, 10, 14, 17, and 20 at approximately the same time of day (1300 hours) during the treatment period. […]

[2] = system: male and female ICR mice; experiment: 21 day oral (diet) treatment of mice: selected tissue weights, fat pads, BAT, muscle, organs (Example 1); type: in vivo; conditions: 21 days; for BAT tissue weight, mean / Biceps tissue weight, mean / Epi/Par tissue weight, mean / Ing tissue weight, mean / Rp tissue weight, mean: male and female mice; for Par weight, mean: females; for Epi weight, mean: males
Procedure: as §1, §2
as §3, with “1996;80:734-741). […]” for “1996;80:734-741).”

[3] = system: Epi/Par fat pads (white adipose tissue); experiment: Adipose tissue apoptosis assay, % DNA fragmentation (Example 1); type: in vivo, mice; conditions: 21 days
Procedure: as §2, §3
DNA Isolation and Apoptosis Assay: Only the Epi and Par fat pads had sufficient tissue for the apoptosis assay. Apoptosis was assayed in two ways: DNA isolated from fat tissue was separated into two fractions: fragmented and genomic DNA. First, the fragmented DNA was run on an agarose gel in order to identify a ladder pattern of internucleosomal DNA degradation that is characteristic of apoptosis. Second, apoptosis was quantified as the ratio of fragmented- to total-DNA, multiplied by 100. Briefly, approximately 50 mg of the Epi or Par white adipose tissue was homogenized in lysis buffer (10 mM Tris-HCL, pH 8.0, 10 mM EDTA, pH 8.0; 0.5% Triton X-100) and centrifuged at 14,000× g for 15 min to separate fragmented DNA from genomic DNA. The supernatant, containing fragmented DNA, was extracted with phenol-chloroform-isoamyl alcohol (25:24:1), and the DNA was precipitated by adding polyacryl carrier (Molecular Research Center, Inc., Cincinnati, Ohio) and ethanol. Genomic (non-fragmented) DNA was extracted from the pellet with DNAzol and the polyacryl carrier. DNA in each fraction was quantified by the PicoGreen method (Molecular Probes, Inc., Eugene, Oreg.) and fluorescence was measured using a SpectroMax Gemini (Molecular Devices).
Statistical Analysis: Analysis of variance (SAS) was used to determine significance of treatment and gender effects. […]

[4] = system: cardiac myocytes; conditions: via β1-AR stimulation; cited from earlier work
[5] = system: adipocytes; conditions: leptin administration; cited from earlier work
[6] = 200 ppm clenbuterol, 800 ppm ractopamine in diet, p<0.05, hydrochloride

## CC(CCc1ccc(O)cc1)NCC(O)c1ccc(O)cc1 (racemic) [Ractopamine, ractopamine hydrochloride]
[1]; 200 ppm in diet
  Cumulative Feed Intake: 5.92 g
  Densitometry Bone Mineral Content: 0.67 g
  Densitometry Fat: 3.00 g
  Densitometry Lean: 25.63 g
  Feed Efficiency: 15.8
  Final Body Weight: 31.4 g
  Weight Gain: 8.25 g
[1]; 800 ppm in diet
  Cumulative Feed Intake: 6.39 g
  Densitometry Bone Mineral Content: 0.67 g
  Densitometry Fat: 3.01 g
  Densitometry Lean: 27.42 g
  Feed Efficiency: 16.6
  Final Body Weight: 31.5 g
  Weight Gain: 8.32 g
[1]; diet, hydrochloride
  Effect on body temperature, food intake, body weight, feed efficiency, body composition: not significantly affected; also recorded: Neither clenbuterol nor ractopamine affected
[2]; [6]
  Rp and Epi/Par fat pad weights compared to control: reduced; also recorded: decreased
[2]; 200 ppm in diet
  BAT tissue weight, mean: .096
  Biceps tissue weight, mean: .128
  Epi/Par tissue weight, mean: .295
  Ing tissue weight, mean: .230
  Rp tissue weight, mean: .058
  Par weight, mean: .22^b
  Epi weight, mean: .36^a
[2]; 800 ppm in diet
  BAT tissue weight, mean: .095
  Biceps tissue weight, mean: .158
  Epi/Par tissue weight, mean: .207
  Ing tissue weight, mean: .176
  Rp tissue weight, mean: .039
  Par weight, mean: .22^b
  Epi weight, mean: .19^b
[2]; 800 ppm in diet, mice, control 66±8 mg
  Retroperitoneal (Rp) fat pad mass: 40 ± 3 mg
[2]; 800 ppm in diet, mice, control 319±30 mg
  Epididymal/parametrial (Epi/Par) fat pad mass: 207 ± 20 mg
[2]; diet, ICR mice
  Muscle mass / muscle weight, body protein or fat content: no effect
[3]; [6]
  Percent DNA fragmentation (apoptosis) in the Epi/Par fat pad compared to control: significant increase in apoptosis
[3]; 800 ppm in diet, mice, control 1.7±0.4%
  Adipose tissue apoptosis (% DNA fragmentation) in Epi/Par fat pads: 4.1±0.8%
[3]; diet, mice
  DNA fragmentation in retroperitoneal or inguinal fat pads: Neither clenbuterol nor ractopamine treatments increased

## NC[C@H](O)c1ccc(O)c(O)c1 [norepinephrine]
[4]
  Apoptosis of cardiac myocytes: induce apoptosis

## leptin: leptin, administration shown in previous experiments to increase apoptosis of adipocytes
[5]
  Apoptosis of adipocytes: increase apoptosis
